For eleven molecules, inhibition results are on record in US5391540A, “Substituted pyridine compounds” (Rohm and Haas Company, priority 1993, dated 1995).

A word on the inhibition: it is the percentage by which the read-out fell short of the control.

Common to all, as to test: Pre-emergent herbicidal activity (Table A)
Holding throughout (type): in vivo

The test system of one test is Barnyardgrass. As to conditions: Echinochloa crus-galli, pre-emergence, Bygr, 11.2 kg/ha, 10-14 days, read-out: herbicidal rating (% inhibition). The method, then: (§1) The herbicidal ratings used in Tables A and B were assigned according to a scale based on the percent inhibition of each plant species. The herbicide rating symbols in Tables A and B are defined as follows: […]
(§2) One set of pre-emergent tests was conducted as follows:
(§3) Topsoil was placed in a pan and compacted to a depth of 0.95 to 1.27 cm. from the top of the pan. A predetermined number of seeds of each of several monocotyledonous and dicotyledonous annual plant species and/or vegetative propagules of various perennial plant species were placed on top of the soil. The soil required to level fill a pan after seeding or adding vegetative propagules was weighed into another pan. A known amount of the test compound dissolved or suspended in an organic solvent or water and applied in acetone or water as a carrier was thoroughly mixed with this cover soil, and the herbicide/soil mixture was used as a cover layer for the previously prepared pan.
(§4) The plant species usually regarded as weeds which were utilized in one set of pre-emergent activity tests, the data for which are shown in Table A, are identified by letter headings printed diagonally above the columns according to the following legend: […]

In a further test the test system is Canada thistle. As to conditions: Cirsium arvense, pre-emergence, Cath, 11.2 kg/ha, 10-14 days, read-out: herbicidal rating (% inhibition). On the procedure: as §1, §2, §3, §4
Another test relates to Cocklebur. The settings on record: Xanthium strumarium, pre-emergence, Cobu, 11.2 kg/ha, 10-14 days, read-out: herbicidal rating (% inhibition). The method, then: as §1, §2, §3, §4
For a further test, the system named is Common Lambsquarters. The settings on record: Chenopodium album, pre-emergence, Colq, 11.2 kg/ha, 10-14 days, read-out: herbicidal rating (% inhibition). The method, then: as §1, §2, §3, §4
Another test has as its system Morningglory. The settings on record: Ipomoea, pre-emergence, Mogl, 11.2 kg/ha, 10-14 days, read-out: herbicidal rating (% inhibition). On the procedure: as §1, §2, §3, §4
Another test deals with Pennsylvania Smartweed. As to conditions: pre-emergence, Pesw, 11.2 kg/ha, 10-14 days, read-out: herbicidal rating (% inhibition). The method, then: as §1, §2, §3, §4
Another test deals with Quackgrass. As to conditions: pre-emergence, Rhqg, 11.2 kg/ha, 10-14 days, read-out: herbicidal rating (% inhibition). The method, then:
as §1, §2, §3, §4

The test system of another test is Rhizome Johnsongrass. As to conditions: Sorghum halepense, pre-emergence, Rhjg, 11.2 kg/ha, 10-14 days, read-out: herbicidal rating (% inhibition). The method, then:
as §1, §2, §3, §4

The subject of the next test is Velvetleaf. The settings on record: Abutilon theophrasti, pre-emergence, Vele, 11.2 kg/ha, 10-14 days, read-out: herbicidal rating (% inhibition). The method, then: as §1, §2, §3, §4
For another test, the system named is Yellow Nutsedge. As to conditions: Cyperus, pre-emergence, Yens, 11.2 kg/ha, 10-14 days, read-out: herbicidal rating (% inhibition). The method, then: as §1, §2, §3, §4
The subject of the next test is Downy Brome. The settings on record: Bromus tectorum, pre-emergence, Dobr, 11.2 kg/ha, 10-14 days, read-out: herbicidal rating (% inhibition). The method, then:
as §1, §2, §3, §4

As to `CCOc1nc(C(F)(F)F)c(C(=O)OC)c(CC(C)C)c1C(=O)OC` [Compound 6, 3,5-pyridinedicarboxylic acid, 2-ethoxy-4-(2-methylpropyl)-6-(trifluoromethyl)-, dimethyl ester], the inhibition at 11200 g/ha in the test on Barnyardgrass is 75 to 100%; with Canada thistle, 75 to 100%; in the test with Cocklebur it was 25 to 49%; in the test on Common Lambsquarters, 75 to 100%; in the test on Morningglory it was 75 to 100%; in the test with Pennsylvania Smartweed it was 75 to 100%. Further, the inhibition at 11200 g/ha with Quackgrass lay in the range of 75 to 100%; in the test with Rhizome Johnsongrass, 75 to 100%; in the test with Velvetleaf, 75 to 100%; in the test with Yellow Nutsedge, 25 to 49%.

As for `CCCOc1nc(C(F)(F)F)c(C(=O)OC)c(CC(C)C)c1C(=O)OCC` [Compound 7, 3,5-pyridinedicarboxylic acid, 4-(2-methylpropyl)-2-propyloxy-6-(trifluoromethyl)-,3-ethyl 5-methyl ester], the inhibition at 11200 g/ha in the test with Barnyardgrass lay in the range of 75 to 100%; in the test on Canada thistle it was 0 to 24%; with Cocklebur, 0 to 24%; in the test with Common Lambsquarters it was 75 to 100%; in the test on Morningglory, 0 to 24%; in the test with Pennsylvania Smartweed it was 25 to 49%. In addition, the inhibition at 11200 g/ha in the test with Quackgrass, in the test on Rhizome Johnsongrass, with Velvetleaf and in the test with Yellow Nutsedge was 0 to 24% each time.

Turning to `COC(=O)c1c(OC)nc(C(F)(F)F)c(C(=O)OC)c1CC(=O)O` [Compound 13, 3,5-pyridinedicarboxylic acid, 4-(carboxymethyl)-2-methoxy-6-(trifluoromethyl)-, dimethyl ester], the inhibition at 11200 g/ha in the test on Barnyardgrass, in the test on Canada thistle, with Cocklebur, in the test on Common Lambsquarters, with Downy Brome and in the test with Morningglory was 0 to 24% each time. For the same molecule, the inhibition at 11200 g/ha in the test with Quackgrass, in the test with Rhizome Johnsongrass, in the test with Velvetleaf and in the test with Yellow Nutsedge was 0 to 24% each time.

As for `COC(=O)c1c(C(F)(F)F)nc(OC)c(N)c1CC(C)C` [Compound 32, 3-pyridinecarboxylic acid, 5-amino-6-methoxy-4-(2-methylpropyl)-2-(trifluoromethyl)-, methyl ester], the inhibition at 11200 g/ha was in the range of 75 to 100% in the test with Barnyardgrass; 0 to 24% in the test with Canada thistle; 0 to 24% with Cocklebur; 75 to 100% in the test on Common Lambsquarters; 0 to 24% in the test on Downy Brome; 0 to 24% in the test on Morningglory. For the same molecule, the inhibition at 11200 g/ha with Pennsylvania Smartweed fell in the range of 50 to 74%; in the test on Quackgrass, 0 to 24%; in the test with Velvetleaf it was 0 to 24%; in the test with Yellow Nutsedge, 0 to 24%.

Take `COC(=O)c1c(OC)nc(C(F)(F)F)c(C=O)c1CC(C)C` [Compound 79, 3-pyridinecarboxylic acid, 5-formy1-2-methoxy-4-(2-methylpropyl)-6-(trifluoromethyl)-, methyl ester]: the inhibition at 11200 g/ha with Barnyardgrass was in the range of 75 to 100%; in the test with Canada thistle, 75 to 100%; in the test with Cocklebur, 0 to 24%; in the test with Common Lambsquarters it was 75 to 100%; with Downy Brome, 75 to 100%; with Morningglory, 50 to 74%. Also, the inhibition at 11200 g/ha was 75 to 100% with Pennsylvania Smartweed, 75 to 100% in the test on Quackgrass, 50 to 74% with Velvetleaf and 0 to 24% in the test with Yellow Nutsedge.

In the case of `COC(=O)c1c(OCC#N)nc(C(F)(F)F)c(C(=O)OC)c1CC(C)C` [Compound 80, 3,5-pyridinedicarboxylic acid, 2-(cyanomethoxy)-4-(2-methylpropyl)-6-(trifluoromethyl)-, dimethyl ester], the inhibition at 11200 g/ha lay within 75 to 100% in the test with Barnyardgrass; 75 to 100% with Canada thistle; 25 to 49% with Cocklebur; 75 to 100% with Common Lambsquarters; 75 to 100% in the test with Downy Brome; 75 to 100% in the test with Morningglory. Moreover, the inhibition at 11200 g/ha was 75 to 100% with Pennsylvania Smartweed, 25 to 49% in the test on Quackgrass, 75 to 100% in the test with Velvetleaf and 50 to 74% in the test with Yellow Nutsedge.

In the case of `COC(=O)c1c(OC)nc(C(F)(F)F)c(C(=O)OCCF)c1CC(C)C` [Compound 81, 3,5-pyridinedicarboxylic acid, 2-methoxy-4-(2-methylpropyl)-6-(trifluoromethyl)-, 5-(2-fluoroethyl) 3-methyl ester], the inhibition at 11200 g/ha with Barnyardgrass, with Canada thistle, in the test with Cocklebur, with Common Lambsquarters, with Downy Brome and in the test on Morningglory was 75 to 100% throughout. Further, the inhibition at 11200 g/ha in the test on Pennsylvania Smartweed, with Quackgrass, in the test with Velvetleaf and in the test on Yellow Nutsedge was 75 to 100% each time.

With `C#CCOC(=O)c1c(C(F)(F)F)nc(OC)c(C(=O)OC)c1CC(C)C` [Compound 82, 3,5-pyridinedicarboxylic acid, 2-methoxy-4-(2-methylpropyl)-6-(trifluoromethyl)-, 3-methyl 5-(2-propynyl)ester], the inhibition at 11200 g/ha with Barnyardgrass lay in the range of 75 to 100%; with Canada thistle, 75 to 100%; in the test with Cocklebur, 50 to 74%; in the test with Common Lambsquarters it was 75 to 100%; in the test on Downy Brome it was 75 to 100%; in the test with Morningglory, 75 to 100%. In addition, the inhibition at 11200 g/ha in the test on Pennsylvania Smartweed fell in the range of 75 to 100%; with Quackgrass, 50 to 74%; in the test on Velvetleaf it was 75 to 100%; in the test on Yellow Nutsedge, 25 to 49%.

Turning to `COC(=O)c1c(OC)nc(C(F)(F)F)c(C(=O)Cl)c1CC(C)C` [Compound 84, 3-pyridinecarboxylic acid, 5-(chlorocarbonyl)-2-methoxy-4-(2-methylpropyl)-6-(trifluoromethyl)-, methyl ester], the inhibition at 11200 g/ha with Barnyardgrass lay within 75 to 100%; in the test with Canada thistle it was 75 to 100%; in the test with Cocklebur it was 0 to 24%; in the test on Common Lambsquarters, 75 to 100%; in the test on Downy Brome it was 75 to 100%; in the test with Morningglory, 25 to 49%. For the same molecule, the inhibition at 11200 g/ha in the test with Quackgrass, in the test with Rhizome Johnsongrass, with Velvetleaf and in the test on Yellow Nutsedge was 0 to 24% in each case.

As to `COC(=O)c1c(OC)nc(C(F)(F)F)c(C(=O)OC)c1CBr` [Compound 87, 3,5-pyridinedicarboxylic acid, 4-(bromomethyl)-2-methoxy-6-(trifluoromethyl)-, dimethyl ester], the inhibition at 11200 g/ha with Barnyardgrass was 0 to 24%; in the test with Canada thistle, 0 to 24%; in the test on Cocklebur it was 0 to 24%; in the test on Common Lambsquarters it was 50 to 74%; in the test with Downy Brome, 0 to 24%; in the test on Morningglory, 0 to 24%. Moreover, the inhibition at 11200 g/ha in the test with Quackgrass, with Rhizome Johnsongrass, with Velvetleaf and in the test on Yellow Nutsedge was 0 to 24% in each case.

On to `COCc1c(C(=O)OC)c(OC)nc(C(F)(F)F)c1C(=O)OC` [Compound 88, 3,5-pyridinedicarboxylic acid, 2-methoxy-4-(methoxymethyl)-6-(trifluoromethyl)-, dimethyl ester], for which the inhibition at 11200 g/ha with Barnyardgrass fell in the range of 75 to 100%; with Canada thistle, 0 to 24%; in the test with Cocklebur, 0 to 24%; in the test with Common Lambsquarters, 50 to 74%; with Downy Brome, 25 to 49%; with Morningglory it was 25 to 49%. Further, the inhibition at 11200 g/ha lay in the range of 0 to 24% with Quackgrass, 0 to 24% in the test on Rhizome Johnsongrass, 25 to 49% with Velvetleaf and 0 to 24% with Yellow Nutsedge.
